Source: patent US8552052B2, “Use of diindolylmethane-related indoles for the treatment and prevention of respiratory syncytial virus associated conditions” (BioResponse, L.L.C., priority 2004, dated 2013)
“Also recorded” adds a separate entry of the source.

Key:
RSV, strain A2 = assay: Production of infectious RSV from infected A549 cells (plaque titer on HEp-2 monolayers); assay type: cell-based, Respiratory Syncytial Virus
Protocol: Cell Culture—A549 cells, a tumor cell line with properties of normal airway epithelial cells, were obtained from American Type Culture Collection (ATCC, Manassas, Va.) and incubated at 37° C. in 5% CO2. The cells were cultured in Eagle's minimum essential medium (MEM, Invitrogen) supplemented with 10% fetal bovine serum (HyClone, Logan, Utah) and […] gentamicin. The A549 cells were subcultured by harvesting in 0.12% trypsin no more than 20 times from stock originally designated at pass 70. To minimize effects of exogenous growth factors or cytokines in this system, the supplemented serum concentration was reduced to 0.5% 24 h prior to and during all experiments with RSV infection. […] RSV Virus—RSV, strain A2, was obtained from Advanced Biotechnologies Inc. (Columbia, Md.) and was used directly as supplied for all experiments. The viral preparation was tested to have a TCID50 titer of ˜1×10^9 in Hep-2 cells at 7 days. […] Levels of Production of Infectious RSV—Production of infectious RSV particles in A549 cell culture in the presence of various concentrations of DIM was measured using a method where the cell free media were titered for RSV infectious activity on a monolayer culture of Hep-2 cells. […] The plaques that appeared around 48 h of incubation were visualized by neutral red staining and counted.

RSV Long strain = assay: Pulmonary histopathology in RSV infected BALB/c mice; assay type: in vivo; conditions: DIM administered orally or parenterally
Protocol: The Following Experimental BALB/c Groups and Treatment Protocol Using DIM were Studied: • 1. RSV infected positive control group, infected with RSV and injected subcutaneously (SC) once daily with DMSO/Phosphate Buffered Saline (PBS) vehicle. • 2. RSV infected, Low dose Parenteral DIM group (15 mg/kg/day), injected SC once daily with DIM suspension • 3. RSV infected, High dose DIM Group (150 mg/kg/day), injected SC once daily with DIM suspension • 4. RSV infected, orally treated DIM group (250 mg/kg/day from absorption enhanced DIM [Example 6.1]), added to powdered feed • 5. Uninfected negative control group, nasally administered vehicle only, and injected subcutaneously (SC) once daily with DMSO/PBS vehicle
Mouse treatment, infection and harvest. […]
To determine viral titer, the lung was homogenized in DMEM supplemented with 2% FBS (2 ml DMEM per 100 mg tissue) in cold. […] Multiple, 4 μm thick sections were stained with haematoxylin & eosin (H&E) and scored for cellular inflammation under light microscopy by two independent researchers. Inflammatory infiltrates were scored by enumerating the layers of inflammatory cells surrounding the vessels and bronchioles. […] A total of about 20 spaces per lung were counted for each animal. […] The concentration of cysteinyl leukotrienes conjugates in the BALF was determined by an ELISA kit following the manufacturer's protocol (R&D Systems, Minneapolis, Minn.). […]

[1] = test system: chemically induced forms of breast cancer; conditions: orally administered, animals; cited from earlier work
breast cancer cells = conditions: cited from earlier work

c1ccc2c(Cc3c[nH]c4ccccc34)c[nH]c2c1 [DIM, 3,3′-diindolylmethane]
RSV yield: viral replication and production of extracellular, progeny RSV viral particles (RSV, strain A2; 72 hour treatment of infected A549 cells, DIM 70, 210, 700 nM, LY294002 2 and 5 μM, FIG. 2): reduced production of infectious, progeny RSV virons; also recorded: significantly reduced viral replication and production of extracellular, progeny RSV viral particles
Reduction of RSV replication by DIM compared with LY294002 (RSV, strain A2; infected A549 cells, 72 h, nM DIM vs higher concentrations of LY294002): equal or greater to that caused by LY294002; also recorded: comparable to that seen with higher concentrations of LY294002
severity in lung pathology (RSV Long strain): reduced severity in lung pathology
tumor growth [1]: inhibits the growth of certain chemically induced forms of breast cancer
estrogenic activity (breast cancer cells): estrogenic
